Laboratory results published in patent US10945962B2, “Controlled-release peptide compositions and uses thereof” (BOARD OF REGENTS OF THE UNIVERSITY OF NEBRASKA, priority 2011, dated 2021).
Where two headings read alike, the source gives them in different places. Square brackets hold non-standard residues; d marks the D form. Ends that are not written are not given here. NMeL = CN[C@@H](CC(C)C)C(=O)O

Key:
E. coli strain DHSα = assay: Direct killing of bacteria, OD600 growth curves; assay type: cell-based; conditions: for effect on log phase growth (OD600): added at OD600 0.2, 500 μg/m, LB or TSB
Experimental: E. coli strain DHSα was grown overnight in Lennox Broth (LB). This culture was diluted to an optical density at […] (OD600) of 0.06. The diluted E. coli was dispensed in 1.5 ml aliquots into separate tubes and 1.5 ml of EP67 ([…] ID NO: 4)), EP54 ([…] NO: 3)), scrambled-EP67 (s-EP67) or scrambled-EP54 in LB was added to obtain a final concentration of 500 μg/ml with the E. coli at an OD600 of 0.03. A culture in LB was also prepared. The cultures were incubated at 37° C. with shaking and the OD600 readings recorded hourly. In order to determine whether the growth media altered the effectiveness of EP67, LB was replaced with an alternative growth media, Tryptic Soy Broth (TSB). To test the efficacy of EP67 on bacteria growing in log phase, overnight cultures of DHSα were grown in either LB or TSB. […] DH5α control cultures (absence of additives) were also prepared. The tubes were further shaken at 37° C. and OD600 readings were taken hourly.

neutrophils = assay: Neutrophil chemotaxis and myeloperoxidase assay, histopathology of injection site; assay type: in vivo, CD1 mice; conditions: for histopathologic analysis of skin tissue: 250 μg s.c., no bacteria
Experimental: Neutrophil chemotaxis and myeloperoxidase assay. Neutrophil recruitment at the site of injection by EP67 or sEP67 was examined using an in vivo chemotaxis assay as described previously (van Sorge N M, et al., PLoS One 2008; 3:e2964). Briefly, 250 μg EP67 or sEP67 were injected subcutaneously into the right flank of CD1 mice. The injection was repeated after 24 h. Mice were euthanized 4 h after the second injection and the site of injection excised for histopathologic analysis or determination of myeloperoxidase (MPO) activity as described previously (van Sorge N M, et al., supra). The assay was carried out two times and the samples analyzed in duplicate.
Neutrophil influx is essential for the protective action of EP67. […] Neutrophil recruitment to the site of EP67 injection was further analyzed using an in vivo neutrophil recruitment assay as described previously (van Sorge N M, et al., supra; and Banerjee A, et al., Cell Microbiol; 12:1576-1588). Neutrophil migration was assessed in skin homogenates following injection of EP67 or sEP67 by determining the level of neutrophil enzyme myeloperoxidase (MPO), which serves as an effective indication of neutrophil infiltration (Banerjee A, et al., supra; and Bradley P P, et al., J Invest Dermatol 1982; 78:206-209). This method compares well with other in vivo assays of neutrophil chemotaxis (van Sorge N M, et al., supra).

MUC1 epitope = assay: Immunization with MUC1/C5a agonist peptides, serum antibody responses (RIA, ELISA); assay type: in vivo; conditions: 100 μg i.p. with RIBI adjuvant, three immunizations, Balb/c and C57B16 mice
Text: Animal Models. The strains of mice used in the studies described in this Example were inbred 6- to 12-week-old C57B16(H-2b) and Balb/c ([…]) females obtained from Jackson Labs (Bar Harbor, Me.). […] The MUC1 peptide selected for these studies contained a motif that may bind to the H-2Kb molecule of the C57B16 mice. Therefore, a strain of mouse that lacked this class I molecule-binding motif (Balb/c) was also studied to determine the relative contribution of the class I-binding motif to the antigen presentation properties of these peptides.
Immunization Protocol. Preimmune sera were obtained from mice, which were subsequently immunized intraperitoneally with 100 μg of the indicated peptide with RIBI adjuvant (MPL+TDM+CWS) (Sigma Immunochemicals). Animals were boosted twice at two-week intervals using the same injection procedure. Sera were obtained following three immunizations (at 6 weeks).
Analysis of Serum Antibody Responses. For radioimmunoassay (RIA), anti-peptide antibodies were determined, before and at different time points after immunization, in 96-well microtiter plates (Dynatech Laboratories, Inc.). Plates were coated with 50 μl of a 100 μg/ml appropriate peptide in phosphate-buffered saline (PBS) pH 7.4 solution overnight at 4° C. The wells were blocked by incubation with 5% dry milk in PBS pH 7.4 for at least two hours. Anti-peptide antibody titers were determined using serial dilutions of sera. […] After washing, specific radioactivity was recorded in a gamma counter (1272 CliniGamma, LKB).
Anti-peptide antibody isotype titers were determined by enzyme-linked immunosorbent assay (ELISA) carried out in 96-well microtiter plates. […] Anti-peptide titers were determined using serial dilutions of sera. […] Again, the plates were washed 4 times with washing buffer and bound enzyme was detected by the addition of 50 μl 1 mg/ml p-nitrophenyl phosphate (Sigma) in 10% diethanolamine (Sigma) pH 9.4. The reaction was stopped by the addition of 50 μl of 0.5 M sodium hydroxide and absorbance values (A405) were determined using Titertek Multiskan (Flow Laboratories, Irvine, Scotland). […]

CA-MRSA strain USA300 = assay: Mouse model of MRSA dermonecrotic infection (lesion size, bacterial load); assay type: in vivo, Staphylococcus aureus
[1] = system: S. aureus (Newman strain); assay: S. aureus in vitro EP67 killing curves; assay type: cell-based; conditions: dilution series, LB
Experimental: 150 μl of LB growth medium plus 50 μl of EP67 or s-EP67 were added to individual culture wells resulting in a dilution series of 6 wells per EP67 or s-EP67. A “no EP67” well (control) was included at the end of each series. S. aureus (Newman strain) was allowed to grow to an OD600 of 0.4 and each well of the dilution series was inoculated with 5 μl of the culture. Two wells with no bacterial inoculums were included to serve as controls. Plates were incubated at 37° C. with agitation and the OD600 of each well was measured hourly using a plate reader.

GBS = assay: Group B Streptococcus (GBS) meningitis model; assay type: in vivo; conditions: CD1 mice, 250 μg i.p. at day −1, 0, 1 and 2, 96 hours post-injection
Experimental: 8-week-old female CD1 mice were treated with 250 μg of EP67 or s-EP67 at day −1, 0, 1 and 2 via i.p. injection. GBS was injected i.p. at 1×10^9 cfu/mouse. Brains and blood were harvested from each mouse 96 hours post-injection. The tissue was homogenized, diluted and plated to determine the cfu/g bacteria.

BAL cells = conditions: infected with influenza A/PR/8 and simultaneously treated, one day later
Experimental: To test the robustness of the EP67 response, mice were treated at the time of influenza infection. Animals were sacrificed one day later for analysis of BAL cells as above.

[2] = system: IL-6, TNF-α, INF-γ and KC; assay: Measurement of cytokines in tissue homogenates by ELISA; assay type: in vivo, mice
Experimental: Measurement of cytokines. IL-6, TNF-α, INF-γ and KC inflammatory cytokines were measured in tissue homogenates as previously described using ELISA for IL-6, TNF-α, INF-γ (Morgan E L, et al., Vaccine; 28:8275-8279), or according to manufacturer's protocols (BD and R&D Systems) for KC. Samples were run in triplicate.
Proinflammatory cytokines are enhanced by EP67 treatment. The decrease in lesion size observed in EP67-treated animals indicated an enhanced immune activation in these animals. In order to determine the nature of the immune response activated by EP67 treatment, skin lesions were harvested 48 h post-infection and EP67 or sEP67 treatment, and subjected to ELISA to measure proinflammatory cytokines in tissue homogenates.

exMAcs and neutrophils = conditions: aged lung
Text: Since the aged mouse is considered a strong model for age-related changes in human immunity, the response of aged mice to EP67 insufflation was examined.

influenza A/A/PR/8 = assay type: in vivo; conditions: mice
[3] = system: bronchoalveolar lavage (BAL) cells; assay: Insufflation of EP67 to the lungs, FACS analysis of BAL cells; assay type: in vivo, mice
Experimental: In short, EP67 (3 mg/kg) was delivered directly to the lungs of mice through insufflation (IN). Animals were sacrificed one day later. Lungs were lavaged with PBS to isolate the bronchoalveolar lavage (BAL) cells for staining and FACS analysis.

[4] = system: S. aureus (USA300 LAC strain) biofilm; assay: Catheter-associated biofilm bacterial burden; assay type: in vivo; conditions: C57BL/6 mice, Day 3, relative to sEP67 and PBS vehicle
Experimental: A S. aureus (USA300 LAC strain) biofilm was established on a hollow catheter (1 cm in length) inserted subcutaneously into C57BL/6 mice by introducing 1000 CFUs of S. aureus into the catheter lumen. At the time of infection, one dose of EP67 (200 μg/ml dissolved in PBS) was introduced. At both 24 and 48 h following infection, a series of four injections of EP67 were made; two into each open end of the catheter (20 μl each) and two along the top and bottom at points perpendicular to the middle of the catheter (50 μl each). Samples of the biofilm and surrounding tissue were obtained at Day 3 and assessed for the presence of viable bacteria by standard culture methods.

[5] = system: anti-influenza antibodies; assay: ELISA for anti-influenza antibodies on serum; assay type: in vivo, mice; conditions: influenza-infected, EP67-treated groups
[6] = 48 h post-infection, compared to sEP67
[7] = EP67 3 mg/kg insufflation, one day later

Substance: (MeL)RMYKPaFDS [sEP67, reference compound]
- effect on log phase growth (OD600) (E. coli strain DHSα): little or no effect on growth
- histopathologic analysis of skin tissue (neutrophils): normal pathology

Substance: YSFKPMPLaRKQGGFLGL (YSFKPMPL[dA]RKQGGFLGL; listed as Homo sapiens) [peptide 4]
- antibody response to inoculation (MUC1 epitope): immune responses were not produced
- antibody response to inoculation (MUC1 epitope; listed as MUC1 epitope conjugated to the C5a agonist peptide at its C-terminus): no appreciable increase in antibody response

Substance: Tyr-Ser-Phe-Lys-Asp-Met-Pro-MeL-(D-Ala)-Arg (YSFKDMP[NMeL][dA]R; listed as Homo sapiens) [EP67, C-terminal analog of C5a]
- effect on bacterial growth (OD600) (E. coli strain DHSα; 500 μg/ml, start OD600 0.03, LB or TSB): induces direct bacteriostatic/bacteriocidal effects
- effect on log phase growth (OD600) (E. coli strain DHSα): significantly reduce and/or stop log phase growth
- cutaneous lesion size (CA-MRSA strain USA300; CD1 mice, 250 μg s.c., 48 h post-bacterial inoculation, compared to sEP67): significantly reduced
- bacterial load (CFU) within lesions (CA-MRSA strain USA300; CD1 mice, 5 days post-inoculation, compared to sEP67 or PBS): significant reduction in bacterial load
- lesion size (CA-MRSA strain USA300; CD88−/− mice, EP67 versus sEP67): no difference in lesion size
- lesion size (CA-MRSA strain USA300; CD-1 mice given isotype IgG control antibody, compared to sEP67): significant reduction in lesion size
- lesion size (CA-MRSA strain USA300; neutropenic CD-1 mice (RB6-8C5 monoclonal antibody), EP67 versus sEP67): no quantifiable difference in lesion size
- lesion size (CA-MRSA strain USA300; wild-type CD88+/+ C57Bl/6 mice, compared to sEP67): significantly smaller lesions
- effect on bacterial growth (OD600) [1]: dose dependent inhibitory effect
- protection against GBS infection (cfu/g in brain and blood) (GBS): protects against GBS infections in the central nervous system
- BAL exMAcs and neutrophils (BAL cells): showed a similar increase in BAL exMAcs and neutrophils to the uninfected animals treated with EP67
- IL-6 level in skin lesion homogenate [2, 6]: Significantly higher levels
- murine KC level in skin lesion homogenate [2, 6]: Significantly higher levels
- INF-γ production ([2]; during MRSA infection): increase
- TNF-α production ([2]; during MRSA infection): increase
- exMAcs and neutrophils in the alveolar space (exMAcs and neutrophils): induces a large population of exMAcs and neutrophils into the alveolar space
- influenza-induced weight loss (influenza A/A/PR/8; treated one day after infection): displayed significant protection from influenza-induced weight loss
- influenza-induced weight loss (influenza A/A/PR/8; treated the day before infection or the day of infection): lost significantly less weight than the non-treated animals
- CD11b+CD11c− cells (GR-1+ neutrophils) in the alveolar space [3, 7]: a large population of CD11b^+CD11c^− cells appeared in the alveolar space
- exudate macrophages (exMac) in BAL cells [3, 7]: appearance of cells bearing the CD11b^+CD11c^+ phenotype of exudate macrophages (exMac)
- dose dependence of EP67-induced changes in BAL populations ([3]; mouse, in vivo): displayed a strict dose-response
- time course of the EP67 response in BAL cells ([3]; seven days post EP67 administration): the neutrophils were largely lost
- histopathologic analysis of skin tissue (neutrophils): massive influx of inflammatory cells, including neutrophils
- myeloperoxidase (MPO) level, accumulating neutrophils (neutrophils; skin homogenates, 250 μg s.c. twice, compared to sEP67): significantly higher
- bacterial burdens within the biofilm and surrounding tissue [4]: significant decrease in bacterial burdens within the biofilm and surrounding tissue
- anti-influenza Abs in serum [5]: a high concentration of anti-influenza Abs was found in each group

Substance: Tyr-Ser-Phe-Lys-Pro-Met-Pro-Leu-(D-Ala)-Arg (YSFKPMPL[dA]R) [EP54, C5a C-terminal decapeptide agonist analog]
- antibody response to inoculation (MUC1 epitope): no appreciable increase in antibody response
